One series concerns the target Acetylcholinesterase (Homo sapiens, UniProt P22303). Put plainly: Inhibition of human recombinant AChE expressed in HEK293 cells using acetylthiocholine iodide as substrate incubated for 10 mins by Ellman's method. The format is cell-based. Background: DTNB colorimetry detects thiols as they appear.
For another series, the target named is Cholinesterase (Homo sapiens, UniProt P06276). Put plainly: Inhibition of human BChE using butyrylthiocholineiodide as substrate incubated for 10 mins by Ellman's method.
Cholinesterase, sequence (P06276 whole entry): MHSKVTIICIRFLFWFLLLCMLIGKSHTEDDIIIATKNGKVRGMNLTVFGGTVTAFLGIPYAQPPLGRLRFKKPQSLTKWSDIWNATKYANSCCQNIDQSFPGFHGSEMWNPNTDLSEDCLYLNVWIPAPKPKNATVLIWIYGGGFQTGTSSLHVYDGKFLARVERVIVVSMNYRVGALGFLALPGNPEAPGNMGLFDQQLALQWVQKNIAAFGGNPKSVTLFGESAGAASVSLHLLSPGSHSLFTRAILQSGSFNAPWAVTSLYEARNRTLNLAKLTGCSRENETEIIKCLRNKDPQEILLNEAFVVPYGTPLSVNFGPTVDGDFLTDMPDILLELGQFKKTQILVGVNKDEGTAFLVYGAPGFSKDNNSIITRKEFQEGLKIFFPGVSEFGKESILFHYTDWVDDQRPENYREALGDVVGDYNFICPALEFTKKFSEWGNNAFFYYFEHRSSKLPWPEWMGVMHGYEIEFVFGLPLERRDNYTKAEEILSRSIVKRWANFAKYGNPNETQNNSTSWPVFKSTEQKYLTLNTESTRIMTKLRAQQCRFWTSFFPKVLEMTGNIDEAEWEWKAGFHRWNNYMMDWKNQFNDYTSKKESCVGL
The target in series [1] is Glycogen synthase kinase-3 beta (Homo sapiens, UniProt P49841). Kind of series: biochemical.
Glycogen synthase kinase-3 beta, sequence (P49841 whole entry): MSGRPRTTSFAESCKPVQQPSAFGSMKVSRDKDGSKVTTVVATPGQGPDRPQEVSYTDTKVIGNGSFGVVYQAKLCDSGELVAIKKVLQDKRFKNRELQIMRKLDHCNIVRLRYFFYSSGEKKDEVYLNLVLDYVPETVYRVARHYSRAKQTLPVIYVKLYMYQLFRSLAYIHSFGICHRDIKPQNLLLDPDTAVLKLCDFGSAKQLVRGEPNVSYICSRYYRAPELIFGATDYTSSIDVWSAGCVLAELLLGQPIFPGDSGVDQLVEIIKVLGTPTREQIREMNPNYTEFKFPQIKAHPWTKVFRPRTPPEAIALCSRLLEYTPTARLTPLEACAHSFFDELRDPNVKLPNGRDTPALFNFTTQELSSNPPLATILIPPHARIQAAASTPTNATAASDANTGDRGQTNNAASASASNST
Description: Inhibition of recombinant human N-terminal His6-tagged GSK3beta H350L mutant expressed in baculovirus infected Sf21 cells using prephosphorylated polypeptide as substrate incubated for 1 min followed by substrate addition and measured after 30 mins by Kinase-Glo luminescence assay
The nature of another series: in vitro. Particulars: PAMPA.

The structures appear in SMILES notation. Some results are limits rather than exact numbers.

Acetylcholinesterase, sequence (P22303 whole entry): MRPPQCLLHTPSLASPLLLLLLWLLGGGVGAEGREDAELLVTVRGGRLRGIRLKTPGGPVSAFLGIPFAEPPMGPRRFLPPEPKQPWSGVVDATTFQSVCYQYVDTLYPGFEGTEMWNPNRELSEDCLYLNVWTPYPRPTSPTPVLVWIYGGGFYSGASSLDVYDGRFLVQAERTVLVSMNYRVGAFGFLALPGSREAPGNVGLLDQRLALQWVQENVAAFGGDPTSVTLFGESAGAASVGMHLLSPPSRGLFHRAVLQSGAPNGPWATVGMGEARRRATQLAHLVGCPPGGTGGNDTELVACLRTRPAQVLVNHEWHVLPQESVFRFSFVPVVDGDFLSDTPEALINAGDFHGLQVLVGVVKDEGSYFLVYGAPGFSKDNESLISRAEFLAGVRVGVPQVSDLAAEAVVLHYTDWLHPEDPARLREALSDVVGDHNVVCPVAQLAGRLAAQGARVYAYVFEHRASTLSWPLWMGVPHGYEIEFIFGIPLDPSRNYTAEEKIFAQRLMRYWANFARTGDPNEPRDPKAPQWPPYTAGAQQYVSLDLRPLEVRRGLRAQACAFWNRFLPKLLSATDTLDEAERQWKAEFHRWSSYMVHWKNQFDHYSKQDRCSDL
Description for in vitro: Effective permeability of compound in PBS/EtOH buffer (7:3) at 25 ug/ml incubated for 18 hrs by PAMPA-BBB assay

In general, IC50 refers to the concentration needed to halve the response being measured. Consider `CNC(=O)c1sc(-c2ccnc(NC(=O)C3CC3)c2)nc1OCC1CCN(Cc2ccc(Br)cc2)CC1`, for which the IC50 is above 1000 µM at Acetylcholinesterase, 68 µM against Cholinesterase and 0.026 µM in series [1].

Consider `NC(=O)c1sc(-c2ccnc(NC(=O)C3CC3)c2)nc1OCCC1CCN(Cc2ccccc2F)CC1`, for which the IC50 at Acetylcholinesterase was 7.8 µM; at Cholinesterase it was 41 µM; in series [1] it was 0.261 µM.

`NC(=O)c1sc(-c2ccnc(NC(=O)C3CC3)c2)nc1OCCC1CCN(Cc2ccc(F)c(F)c2)CC1`: the IC50 at Acetylcholinesterase amounted to 42.8 µM; on Cholinesterase, 7.2 µM; in series [1], 0.01 µM.

For orientation: Papp means the rate of passage across a membrane or cell layer, normalised by area and donor concentration. Low readings indicate slow passage, high ones fast passage. As for `CCn1cc(C(=O)O)c(=O)c2ccc(-n3cccc3)cc21`, the Papp at 18 h, 25 ug/ml in the series “in vitro” was determined as 2.5 ×10⁻⁶ cm/s.

`NC(=O)c1sc(-c2ccnc(NC(=O)C3CC3)c2)nc1O`: the IC50 at Acetylcholinesterase is above 1000 µM; against Cholinesterase it was above 1000 µM; in series [1] it was 0.011 µM.

Turning to `CNC(=O)c1sc(-c2ccnc(NC(=O)C3CC3)c2)nc1OCC1CCN(Cc2ccc(F)c(F)c2)CC1`, the 50% inhibitory concentration (IC50) was determined as 80 µM on Acetylcholinesterase, 20 µM on Cholinesterase and 0.062 µM in series [1].

`COc1cc2c(cc1OC)C(=O)C(CC1CCN(Cc3ccccc3)CC1)C2` (stereo not given) [DONEPEZIL]: in series [1], the IC50 is above 1 µM.

Consider `CNC(=O)c1sc(-c2ccnc(NC(=O)C3CC3)c2)nc1OCC1CCN(Cc2cccc([N+](=O)[O-])c2)CC1`, for which the IC50 at Acetylcholinesterase was found to be 6 µM; on Cholinesterase, 9 µM; in series [1], 0.005 µM.

In the case of `NC(=O)c1sc(-c2ccnc(NC(=O)C3CC3)c2)nc1OCCC1CCN(Cc2c(F)cccc2F)CC1`, the results for the IC50 (at Acetylcholinesterase; at Cholinesterase; in series [1]) were 19.5 µM, 1.9 µM and 0.005 µM, respectively. This compound also displayed a Papp at 18 h, 25 ug/ml in the series “in vitro” of 6.8 ×10⁻⁶ cm/s.

Regarding `CNC(=O)c1sc(-c2ccnc(NC(=O)C3CC3)c2)nc1OCC1CCN(Cc2ccc(Cl)c(Cl)c2)CC1`, the IC50 on Acetylcholinesterase was found to be 97 µM; against Cholinesterase, 65 µM; in series [1] it was 0.041 µM.

Turning to `CNC(=O)c1sc(-c2ccnc(NC(=O)C3CC3)c2)nc1OC1CCN(Cc2ccccc2)CC1`, the IC50 is 73 µM on Acetylcholinesterase, 31 µM against Cholinesterase and 0.007 µM in series [1].

With `CNC(=O)c1sc(-c2ccnc(NC(=O)C3CC3)c2)nc1OCC1CCN(Cc2ccc(Cl)cc2)CC1`, the IC50 is 82 µM at Acetylcholinesterase, 297 µM on Cholinesterase and 0.045 µM in series [1].

Regarding `CNC(=O)c1sc(-c2ccnc(NC(=O)C3CC3)c2)nc1OCC1CCN(Cc2ccccc2)CC1`, the IC50 at Acetylcholinesterase turned out to be 8 µM; at Cholinesterase it was 14 µM; in series [1], 0.016 µM.

Consider `NC(=O)c1sc(-c2ccnc(NC(=O)C3CC3)c2)nc1OCCC1CCN(Cc2ccccn2)CC1`, for which the IC50 amounted to 6.6 µM on Acetylcholinesterase, 86.1 µM on Cholinesterase and 0.193 µM in series [1].

As to `NC(=O)c1sc(-c2ccnc(NC(=O)C3CC3)c2)nc1OCCCC1CCN(Cc2ccccc2F)CC1`, the IC50 at Acetylcholinesterase came out at 1.32 µM; against Cholinesterase, 4.2 µM; in series [1], 0.015 µM. In addition, the Papp at 18 h, 25 ug/ml in “in vitro” was 7.1 ×10⁻⁶ cm/s.

Turning to `CNC(=O)c1sc(-c2ccnc(NC(=O)C3CC3)c2)nc1OCC1CCN(Cc2ccccc2F)CC1`, the values for the IC50 (at Acetylcholinesterase; against Cholinesterase; in series [1]) were 9 µM, 11 µM and 0.014 µM, respectively.

With `NC(=O)c1sc(-c2ccnc(NC(=O)C3CC3)c2)nc1OCCCC1CCN(Cc2cccc(F)c2)CC1`, the IC50 on Acetylcholinesterase stood at 3 µM; on Cholinesterase, 1.8 µM; in series [1] it was 0.009 µM. In “in vitro”, this compound registered a Papp at 18 h, 25 ug/ml of 8.6 ×10⁻⁶ cm/s.

As for `NC(=O)c1sc(-c2ccnc(NC(=O)C3CC3)c2)nc1OCCC1CCN(Cc2ccc(F)cc2)CC1`, the IC50 at Acetylcholinesterase came out at 4.5 µM; at Cholinesterase it was 17.6 µM; in series [1] it was 0.038 µM. In addition, in “in vitro”, the Papp at 18 h, 25 ug/ml worked out at 8.2 ×10⁻⁶ cm/s.

On to `NC(=O)c1sc(-c2ccnc(NC(=O)C3CC3)c2)nc1OCCC1CCN(Cc2cccc(F)c2)CC1`, for which the figures for the IC50 (at Acetylcholinesterase; on Cholinesterase; in series [1]) were 4.7 µM, 295 µM and 0.026 µM, respectively. Moreover, the Papp at 18 h, 25 ug/ml in “in vitro” amounted to 7 ×10⁻⁶ cm/s.

Regarding `CNC(=O)c1sc(-c2ccnc(NC(=O)C3CC3)c2)nc1OCC1CCN(Cc2cccc(Br)c2)CC1`, the values for the IC50 (on Acetylcholinesterase; on Cholinesterase; in series [1]) were 394 µM, 15 µM and 0.049 µM, respectively.

Take `NC(=O)c1sc(-c2ccnc(NC(=O)C3CC3)c2)nc1OCCC1CCN(Cc2ccccc2)CC1`: the IC50 on Acetylcholinesterase came to 0.73 µM; against Cholinesterase it was 15.3 µM; in series [1], 0.019 µM. Further, in the series “in vitro”, the Papp at 18 h, 25 ug/ml came out at 8.8 ×10⁻⁶ cm/s.

With `NC(=O)c1sc(-c2ccnc(NC(=O)C3CC3)c2)nc1OCCC1CCN(Cc2ccccc2Cl)CC1`, the values for the IC50 (on Acetylcholinesterase; on Cholinesterase; in series [1]) were 3.7 µM, 301 µM and 0.027 µM, respectively. Also, in the series “in vitro”, the Papp at 18 h, 25 ug/ml amounted to 6.8 ×10⁻⁶ cm/s.

Turning to `CCn1cc(C(=O)O)c(=O)c2cc(F)c(N3CCNC(C)C3)c(F)c21` (stereo not given) [LOMEFLOXACIN], the Papp at 18 h, 25 ug/ml in “in vitro” was 0.9 ×10⁻⁶ cm/s.

Source of the values: ChEMBL document CHEMBL4680314, “Discovery of potent glycogen synthase kinase 3/cholinesterase inhibitors with neuroprotection as potential therapeutic agent for Alzheimer's disease” (Bioorg Med Chem, 2021).
